≈ marks a conversion by molar mass, not a printed value. Read-outs that look alike come from different tables or passages of the source.
Tests used:
[1] = Stability of rifaximin powder obtained by spray drying on storage; format: physicochemical; settings: for Description / Total impurities / Water content (Karl Fisher) / X-Ray diffraction spectrum: 40° C. ± 2° C., RH 75 ± 5%; for X-Ray diffraction spectrum: complies with an amorphous form of Rifaximin
[2] = Particle size dimension (PSD), Beckman-Coulter LS100 Q; format: physicochemical; settings: solvent White Spirit
Description: The particle size analysis were performed using Beckman—Coulter LS100 Q particle size analyzer equipped with a micro-volume cell. The solvent used is White Spirit (WS). In Table 4 are reported the average size of the particles obtained with spray drying and milling processes.

[3] = Bulk density; format: physicochemical; settings: 10 ml volumetric flask, three samples
[4] = Solubility over time of rifaximin preparations in phosphate buffer pH 6.8; format: physicochemical
Description: Samples taken at 5-minute intervals during the first hour and at 15-minute intervals in the remaining time, are analysed in HPLC after filtration.

[5] = PK study on dogs of rifaximin prepared by spray drying; format: in vivo, dog (beagle); settings: blood
Description: Capsules of hard gelatin containing only rifaximin were administered, and the pre- and post-dose observations, the body weight and the physical examination were evaluated.
Blood samples were collected from all animals on each day of dosing at: 0 (pre-dose), 1, 2, 4, 6, 8 and 24 hours after each dosing.

[6] = Rifaximin solubility at different pH, shake flask method; format: physicochemical; settings: for solubility: thermodynamic from solid, shake flask, 20° C.
Description: The study was conducted in accordance with accepted principles in order to meet the requirements of the Annex to European Commission Directive 92/69/EEC and the OECD Guidelines for Testing of Chemicals (EEC Method A6, OECD Method 105). […] Aliquots of the saturated solutions of rifaximin-α were adequately diluted, then analyzed by a high performance liquid chromatography (HPLC) method.

[7] = test system: enterotoxogenic Escherichia coli isolates; settings: cited from earlier work
[8] = test system: enteric bacteria pathogens; settings: cited from earlier work

CO[C@H]1/C=C/O[C@@]2(C)Oc3c(C)c(O)c4c(O)c(c5c(nc6cc(C)ccn65)c4c3C2=O)NC(=O)/C(C)=C\C=C\[C@H](C)[C@H](O)[C@@H](C)[C@@H](O)[C@@H](C)[C@H](OC(C)=O)[C@@H]1C [Example 1, rifaximin]
Description ([1]; 1 month): Red-orange | Total impurities ([1]; 1 month): 0.54% | Water content (Karl Fisher) ([1]; 1 month): 4.9% | X-Ray diffraction spectrum ([1]; 1 month): Complies with | Description ([1]; 3 months): Red-orange | Total impurities ([1]; 3 months): 0.95% | Water content (Karl Fisher) ([1]; 3 months): 5.4% | X-Ray diffraction spectrum ([1]; 3 months): Complies with | stability of the obtained rifaximin powder ([1]; 40° C.+2, relative humidity 75%, up to three months): stable | Description ([1]; T0, acceptance Red-orange powder): Red-orange | Total impurities ([1]; T0, acceptance ≦2.0%): 0.51% | Water content (Karl Fisher) ([1]; T0, acceptance ≦8%): 2.2% | X-Ray diffraction spectrum ([1]; T0): Complies with | stability of rifaximin in powder form ([1]; after three months, 30° C. to 40° C., humidity degree higher than 50%): stable | Diameter Particle d10 ([2]; listed as Spray Drying Process): 4.56 μm | Diameter Particle d50 ([2]; listed as Spray Drying Process): 19.60 μm | Diameter Particle d90 ([2]; listed as Spray Drying Process): 62.21 μm | bulk density ([3]; listed as rifaximin by spay drying): 0.257 g/mL | Solubility over time, Concentration ([4]; 10 min, phosphate buffer pH 6.8, 30±0.5° C., listed as Spray drying): 30.2 mg/L (≈ 38.4 µM) | Solubility over time, Concentration ([4]; 15 min, phosphate buffer pH 6.8, 30±0.5° C., listed as Spray drying): 44.0 mg/L (≈ 56 µM) | Solubility over time, Concentration ([4]; 20 min, phosphate buffer pH 6.8, 30±0.5° C., listed as Spray drying): 47.0 mg/L (≈ 59.8 µM) | Solubility over time, Concentration ([4]; 25 min, phosphate buffer pH 6.8, 30±0.5° C., listed as Spray drying): 38.0 mg/L (≈ 48.4 µM) | Solubility over time, Concentration ([4]; 60 min, phosphate buffer pH 6.8, 30±0.5° C., listed as Spray drying): 11.0 mg/L (≈ 14 µM) | Solubility over time, Concentration ([4]; 75 min, phosphate buffer pH 6.8, 30±0.5° C., listed as Spray drying): 9.9 mg/L (≈ 12.6 µM) | Solubility over time, Concentration ([4]; 90 min, phosphate buffer pH 6.8, 30±0.5° C., listed as Spray drying): 9.5 mg/L (≈ 12.1 µM) | Solubility over time, Concentration ([4]; 105 min, phosphate buffer pH 6.8, 30±0.5° C., listed as Spray drying): 9.3 mg/L (≈ 11.8 µM) | Solubility over time, Concentration ([4]; 120 min, phosphate buffer pH 6.8, 30±0.5° C., listed as Spray drying): 9.1 mg/L (≈ 11.6 µM) | Solubility over time, Concentration ([4]; 135 min, phosphate buffer pH 6.8, 30±0.5° C., listed as Spray drying): 9.0 mg/L (≈ 11.5 µM) | Solubility over time, Concentration ([4]; 150 min, phosphate buffer pH 6.8, 30±0.5° C., listed as Spray drying): 8.8 mg/L (≈ 11.2 µM) | solubility at 5 min ([4]; phosphate buffer, 30 °C, pH 6.8, aqueous buffer, thermodynamic from solid, 5 min, 500 mg in 750 ml phosphate buffer pH 6.8, 30±0.5° C., 250 rpm, read-out: Solubility over time, Concentration): 14.4 µg/mL (≈ 18.3 µM) | solubility at 30 min ([4]; phosphate buffer, 30 °C, pH 6.8, aqueous buffer, thermodynamic from solid, 30 min, phosphate buffer pH 6.8, 30±0.5° C., read-out: Solubility over time, Concentration): 28.7 µg/mL (≈ 36.5 µM) | solubility at 35 min ([4]; phosphate buffer, 30 °C, pH 6.8, aqueous buffer, thermodynamic from solid, 35 min, phosphate buffer pH 6.8, 30±0.5° C., read-out: Solubility over time, Concentration): 22.4 µg/mL (≈ 28.5 µM) | solubility at 40 min ([4]; phosphate buffer, 30 °C, pH 6.8, aqueous buffer, thermodynamic from solid, 40 min, phosphate buffer pH 6.8, 30±0.5° C., read-out: Solubility over time, Concentration): 17.7 µg/mL (≈ 22.5 µM) | solubility at 45 min ([4]; phosphate buffer, 30 °C, pH 6.8, aqueous buffer, thermodynamic from solid, 45 min, phosphate buffer pH 6.8, 30±0.5° C., read-out: Solubility over time, Concentration): 14.9 µg/mL (≈ 19 µM) | solubility at 50 min ([4]; phosphate buffer, 30 °C, pH 6.8, aqueous buffer, thermodynamic from solid, 50 min, phosphate buffer pH 6.8, 30±0.5° C., read-out: Solubility over time, Concentration): 13.1 µg/mL (≈ 16.7 µM) | solubility at 55 min ([4]; phosphate buffer, 30 °C, pH 6.8, aqueous buffer, thermodynamic from solid, 55 min, phosphate buffer pH 6.8, 30±0.5° C., read-out: Solubility over time, Concentration): 11.8 µg/mL (≈ 15 µM) | Tmax ([5]; female, beagle, dog, po, 100 mg/kg): 2 h | AUC(0-t) ([5]; female, beagle, dog, po, 100 mg/kg, read-out: AUC0-24 h, mean (±standard error)): 2850 ± 1490 ng·h/mL | Cmax ([5]; female, beagle, dog, po, 100 mg/kg, read-out: Cmax, mean (±standard error)): 1040 ± 588 ng/mL | AUC(0-t) ([5]; human (calculated), oral, 2.9 mg/kg, calculated from dog values (100 mg/kg, HED 54.4 mg/kg), mean ± standard error, read-out: AUC0-24 h, values calculated in humans proportionally reduced to the dosage 2.9 mg/kg): 143 ± 80.1 ng·h/mL | Cmax ([5]; human (calculated), oral, 2.9 mg/kg, calculated from dog values (100 mg/kg, HED 54.4 mg/kg), mean ± standard error, read-out: Cmax, values calculated in humans proportionally reduced to the dosage 2.9 mg/kg): 56.1 ± 31.6 ng/mL

CO[C@H]1/C=C/O[C@@]2(C)Oc3c(C)c(O)c4c(O)c(c5c(nc6cc(C)ccn65)c4c3C2=O)NC(=O)/C(C)=C\C=C\[C@H](C)[C@H](O)[C@@H](C)[C@@H](O)[C@@H](C)[C@H](OC(C)=O)[C@@H]1C [rifaximin by milling, rifaximin, reference compound]
Diameter Particle d10 ([2]; listed as Milling Process): 1.84 μm | Diameter Particle d50 ([2]; listed as Milling Process): 8.17 μm | Diameter Particle d90 ([2]; listed as Milling Process): 12.92 μm | bulk density [3]: 0.327 g/mL | Solubility over time, Concentration ([4]; 5 min, 500 mg in 750 ml phosphate buffer pH 6.8, 30±0.5° C., 250 rpm): 10.8 mg/L (≈ 13.7 µM) | Solubility over time, Concentration ([4]; 10 min, phosphate buffer pH 6.8, 30±0.5° C.): 14.3 mg/L (≈ 18.2 µM) | Solubility over time, Concentration ([4]; 15 min, phosphate buffer pH 6.8, 30±0.5° C.): 15.9 mg/L (≈ 20.2 µM) | Solubility over time, Concentration ([4]; 20 min, phosphate buffer pH 6.8, 30±0.5° C.): 16.7 mg/L (≈ 21.2 µM) | Solubility over time, Concentration ([4]; 25 min, phosphate buffer pH 6.8, 30±0.5° C.): 16.9 mg/L (≈ 21.5 µM) | Solubility over time, Concentration ([4]; 30 min, phosphate buffer pH 6.8, 30±0.5° C.): 16.7 mg/L (≈ 21.2 µM) | Solubility over time, Concentration ([4]; 35 min, phosphate buffer pH 6.8, 30±0.5° C.): 16.1 mg/L (≈ 20.5 µM) | Solubility over time, Concentration ([4]; 40 min, phosphate buffer pH 6.8, 30±0.5° C.): 15.4 mg/L (≈ 19.6 µM) | Solubility over time, Concentration ([4]; 45 min, phosphate buffer pH 6.8, 30±0.5° C.): 14.8 mg/L (≈ 18.8 µM) | Solubility over time, Concentration ([4]; 50 min, phosphate buffer pH 6.8, 30±0.5° C.): 14.0 mg/L (≈ 17.8 µM) | Solubility over time, Concentration ([4]; 55 min, phosphate buffer pH 6.8, 30±0.5° C.): 13.5 mg/L (≈ 17.2 µM) | Solubility over time, Concentration ([4]; 90 min, phosphate buffer pH 6.8, 30±0.5° C.): 10.9 mg/L (≈ 13.9 µM) | Solubility over time, Concentration ([4]; 105 min, phosphate buffer pH 6.8, 30±0.5° C.): 9.8 mg/L (≈ 12.5 µM) | Solubility over time, Concentration ([4]; 120 min, phosphate buffer pH 6.8, 30±0.5° C.): 9.0 mg/L (≈ 11.5 µM) | Solubility over time, Concentration ([4]; 135 min, phosphate buffer pH 6.8, 30±0.5° C.): 8.3 mg/L (≈ 10.6 µM) | Solubility over time, Concentration ([4]; 150 min, phosphate buffer pH 6.8, 30±0.5° C.): 7.9 mg/L (≈ 10.1 µM) | solubility at 60 min ([4]; phosphate buffer, 30 °C, pH 6.8, aqueous buffer, thermodynamic from solid, 60 min, phosphate buffer pH 6.8, 30±0.5° C., read-out: Solubility over time, Concentration): 12.9 µg/mL (≈ 16.4 µM) | solubility at 75 min ([4]; phosphate buffer, 30 °C, pH 6.8, aqueous buffer, thermodynamic from solid, 75 min, phosphate buffer pH 6.8, 30±0.5° C., read-out: Solubility over time, Concentration): 12.1 µg/mL (≈ 15.4 µM)

CO[C@H]1/C=C/O[C@@]2(C)Oc3c(C)c(O)c4c(O)c(c5c(nc6cc(C)ccn65)c4c3C2=O)NC(=O)/C(C)=C\C=C\[C@H](C)[C@H](O)[C@@H](C)[C@@H](O)[C@@H](C)[C@H](OC(C)=O)[C@@H]1C [rifaximin, (2S,16Z,18E,20S,21S,22R,23R,24R,25S,26S,27S,28E)-5,6,21,23,25 pentahydroxy-27-methoxy-2,4,11,16,20,22,24,26-octamethyl-2,7-(epoxypentadeca-(1,11,13)trienimino) benzofuro (4,5-e) pyrido(1,2,-a) benzimi-dazole-1,15(2H)-dione,25-acetate]
effect of pH variation on solubility ([6]; pH variation between 5 and 7): does not affect the solubility | virulence of the pathogens ([7]; contact maintained only for 8 hours): not abolished | concentration effective in the alteration of the virulence ([7]; continuous contact for at least 24 hours): 8 fold lower than MIC | sub-inhibitory concentration at which alteration of virulence factor occurs [8]: 32 folds lower than the MIC values

CO[C@H]1/C=C/O[C@@]2(C)Oc3c(C)c(O)c4c(O)c(c5c(nc6cc(C)ccn65)c4c3C2=O)NC(=O)/C(C)=C\C=C\[C@H](C)[C@H](O)[C@@H](C)[C@@H](O)[C@@H](C)[C@H](OC(C)=O)[C@@H]1C [rifaximin-α, rifaximin]
solubility ([6]; aqueous buffer, pH 4 buffer solution): 4.12 µg/mL (≈ 5.24 µM) | solubility ([6]; aqueous buffer, pH 7 buffer solution): 3.22 µg/mL (≈ 4.1 µM) | solubility ([6]; aqueous buffer, pH 10 buffer solution): 299 µg/mL (≈ 380 µM) | solubility ([6]; Purified water, saturated solutions of rifaximin-α): 3.63 µg/mL (≈ 4.62 µM)
